The record followed here is patent publication US20210113492A1, “METHOD FOR INHIBITING PROLIFERATION AND METASTASIS OF CANCER CELLS BY USING NAPHTHOQUINONE DERIVATIVE” (National Tsing Hua University, priority 2019, published 2021).

Structures are written as SMILES. ≈ marks a conversion by molar mass, not a printed value.

For orientation: IC50 means the concentration needed to halve the response being measured.

Test [1] concerns prostate cancer cells (PC3). The test can be described thus: MTT survival assay, PC3. It is filed as cell-based. Conditions: Homo sapiens, 48 h, read-out: IC50, survival rate. How it is done:
According to the present invention, human prostate cancer cell line PC3 cells were obtained from ATCC (ATCC® ^CRL-1435™) and maintained in DMEM medium supplemented with 10% FBS, 1% L-Gln and 1% AA. Cells were maintained in an atmosphere containing 5% CO2 at 37° C., and the culture medium was replaced every 2 days.
(§1) Isoplumbagin (AKOS006277326, acquired from AKos GmbH, Steinen, Germany) was dissolved in dimethyl sulfoxide (DMSO) and added to the medium, so that the final concentration of DMSO was less than 0.1%. The survival rate of isoplumbagin on OC3-IV2, U87, H1299 and PC3 cell lines was determined using the 3-(4,5-dimethylthiazol-2-yl)-2,5-diphenyltetrazolium bromide (MTT; Sigma-Aldrich) assays. 3×10^3 cells/well were seeded in 96-well plates. After incubation for 24 h, cells were treated with isoplumbagin at various concentrations (0, 1, 5, 10, 25, 50 and 100 μM) and incubated for a further 48 h. At the end of treatment, 10 μL 5 mg/mL MTT was added to each well. After incubation at 37° C. for 3 h, medium was removed and DMSO was added to each well to dissolve reduced MTT product formazan. The absorbance of dissolved formazan was measured at 550 nm wavelengths by a spectrophotometer. […]

In another test the target is T1, NQO1 (Homo sapiens, UniProt P15559).
T1 construct: endogenous in cells; host or cells: OC3-IV2 (human oral squamous cell carcinoma), cytosolic fraction / lysate supernatant
T1 sequence (P15559 whole entry): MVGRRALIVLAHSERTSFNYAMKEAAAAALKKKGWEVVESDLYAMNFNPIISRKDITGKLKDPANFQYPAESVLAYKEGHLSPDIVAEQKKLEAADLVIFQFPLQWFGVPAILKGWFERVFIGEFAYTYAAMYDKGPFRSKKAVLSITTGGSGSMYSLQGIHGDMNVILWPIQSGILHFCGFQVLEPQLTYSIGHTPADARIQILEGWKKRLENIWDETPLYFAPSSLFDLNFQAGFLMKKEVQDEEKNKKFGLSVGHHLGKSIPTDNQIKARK
The test can be described thus: NQO1 enzymatic activity assay (substrate reduction with NADH and WST1). The class given is biochemical. The settings on record: cytosolic fractions of OC3-IV2 cells; isoplumbagin 5 μM and 10 μM, menadione 1X and 2X. How it is done: FIG. 4 proves that isoplumbagin is a substrate of NQO1. The cytosolic fractions of OC3-IV2 cells were used for the NQO1 enzymatic activity assay. The NQO1 enzyme activity was calculated by measuring the simultaneous reduction of menadione or isoplumbagin with cofactor NADH and WST1 (a highly sensitive tetrazolium reagent) which leads to increased absorbance at 450 nm. NQO1 activity assay kit (#ab184867) was purchased from Abcam (Cambridge, Mass., USA). OC3-IV2 cells were lysed with 1X extraction buffer containing 1 mM phenylmethylsulfonyl fluoride (PMSF) for 15 min on ice, and then centrifuged at 17,000×g at 4° C. for 20 min. The supernatant was collected and then the protein concentration of each sample was determined by BCA assays (Santa Cruz Biotechnology). Diluted sample and reaction buffer were added into 96-wells plate containing menadione (1X and 2X) or different concentrations of isoplumbagin (5 μM and 10 μM) with cofactor NADH and WST1. The absorbance of reduced WST1 was measured at 450 nm wavelengths by a spectrophotometer. Data from three independent experiments are presented as mean ±SEM (*P<0.05 compared with no substrate, paired Student's t-test).
A general note: Tetrazolium assays rely on reduction of a dye to a coloured formazan, in cell work by metabolically active cells.

The test system of test [2] is human non-small cell lung carcinoma cells (H1299). In words: MTT survival assay, H1299. Conditions: NCI-H1299, 48 h, read-out: IC50, survival rate. The class given is cell-based. The method, then: According to the present invention, human non-small cell lung carcinoma cell H1299 were obtained from ATCC (ATCC® CRL-5803™) cultured in Roswell Park Memorial Institute (RPMI) 1640 medium (Invitrogen) containing 10% FBS, 1% L-Gln and 1% AA. Cells were maintained in a humidified atmosphere containing 5% CO2 at 37° C., and the culture medium was replaced every 2 days.
as §1

The test system of test [3] is human primary glioblastoma cells (U87). In words: MTT survival assay, U87. It is filed as cell-based. Conditions: 48 h, read-out: IC50, survival rate. How it is done: According to the present invention, Human primary glioblastoma cell line U87 were obtained from the American Type Culture Collection (ATCC® HTB-14™, Manassas, Va., USA) and grown in DMEM medium supplemented with 10% FBS, 1% MEM Non-Essential Amino Acids Solution (Invitrogen) and 1% penicillin/streptomycin (Invitrogen). The incubator was maintained at 5% CO2 and a constant temperature of 37° C., and the culture medium was changed every two days.
as §1

Another test relates to OC3-IV2 cells. The test can be described thus: Oral orthotopic OC3-IV2 xenograft mice model. It is filed as in vivo, CB17/lcr-Prkdc^scid/CrlNarl mice. Conditions: 2 mg/kg intraperitoneal once every 3 days, day 0-18. The method, then: In this example, the anti-tumor effect of isoplumbagin in xenograft mice model was explored. In oral orthotopic xenograft CB17/lcr-Prkdc^scid/CrlNarl mice model, 1×10^6 OC3-IV2 cells were harvested and re-suspended in 100 μl PBS. The cells were injected through the oral buccal mucosa into six-week-old male CB17/lcr-Prkdc^scid/CrlNarl mice (National Laboratory Animal Center, Taiwan). When the tumor size in oral buccal reached approximately 25 mm^3 at 14 days after inoculation of the OC3-IV2 cells, mice were randomly assigned into two groups (n=3 per group): vehicle (DMSO) control group and 2 mg/kg isoplumbagin group. Treatments were given via intraperitoneal injection once every 3 days in the morning for 2 weeks. During this period, mice weights and tumor volumes (length×width^2/2) were recorded every 3 days. At the end of the study (on day 18), the mice were sacrificed by carbon dioxide asphyxiation. […]
FIGS. 7A-7D show the anti-tumor effect of isoplumbagin in xenograft mice model. […] Tumor volume (FIG. 7A) and body weight (FIG. 7B) were measured from day 0-18 after treatment. […]

On to `CC1=CC(=O)c2cccc(O)c2C1=O` [isoplumbagin, 5-hydroxy-3-methyl-1,4-naphthoquinone], for which the IC50 in test [1] was 1.13 µg/mL (≈ 6 µM); in test [2], 0.28 µg/mL (≈ 1.49 µM); in test [3], 0.45 µg/mL (≈ 2.39 µM). Moreover, at NQO1, the “substrate of NQO1 (reduction with NADH and WST1, absorbance at 450 nm)” value is on record as “substrates of NQO1”. Besides, the “tumor growth (tumor volume, tumor weight)” value in the test on OC3-IV2 cells was “can effectively inhibit tumor growth”.
